# Source: patent US20160102066A1, “BENZOTHIAZOLE DERIVATIVE AND ANTI-TUMOR USE THEREOF” (YANTAI UNIVERSITY, priority 2014, published 2016)
# Test system: prostate cancer RM-1 transplanted tumor
# Test: mice prostate cancer RM-1 transplanted tumor, in vivo
# Details: male C57/BL6 mice, i.p., Docetaxel 10 mg/kg × 3, 1-1 100 mg/kg × 4
# Protocol: The experiment procedures are summarized as follows: mice who had prostate cancer RM-1 and grown well were sacrificed by cervical dislocation. Under sterile conditions, tumor mass growing well was stripped off, homogenized, diluted with physiological saline in 1:4. Each mouse was inoculated 0.2 mL of the tumor solution in the armpit and back (approximately 2*10^6 cells). On the next day; the animals were randomized into groups and the administration began. […] The dosing volume was 0.1 mL/10 g. At the same time, docetaxel control group and solvent control group were set. As for the docetaxel group, the animals were administered by intraperitoneal injection at 10 mg/kg dose, the dosing volume was 0.1 mL/10 g. After continuous administration for 10 days, the animals were sacrificed by cervical dislocation, weighed the body and the tumor, respectively. Inhibition rate of tumor growth (%) was calculated, and the results were statistically processed.
smiles,measurement,setting,value
"CC(=O)O[C@@]12CO[C@@H]1C[C@H](O)[C@@]1(C)C(=O)[C@H](O)C3=C(C)[C@@H](OC(=O)[C@H](O)[C@@H](NC(=O)OC(C)(C)C)c4ccccc4)C[C@@](O)([C@@H](OC(=O)c4ccccc4)[C@H]21)C3(C)C [Docetaxel, docetaxel]",Tumor weight,,1.77 ± 0.61 g
same,"body weight of Animals, Final",at sacrifice,18.43 ± 2.17 g
same,"body weight of Animals, Initial",baseline,20.00 ± 1.07 g
same,Inhibition rate of tumor growth,versus solvent control,32%
